Reference: patent US10336762B2 (priority 2017, dated 2019)

Assays:
[1] = tested on: TNFα; assay: cells; assay type: cell-based, human; conditions: Homo sapiens, Monocyte, LPS-stimulated human monocytes, TNFα by TR-FRET; read-out: EC50 TNF
[2] = target: IRAK4 enzyme (Homo sapiens (Human), UniProt Q9NWZ3); assay: biochemical; assay type: biochemical; conditions: IRAK4 enzyme, TR-FRET, 500 μM ATP
Chain of IRAK4 enzyme (Q9NWZ3 whole entry): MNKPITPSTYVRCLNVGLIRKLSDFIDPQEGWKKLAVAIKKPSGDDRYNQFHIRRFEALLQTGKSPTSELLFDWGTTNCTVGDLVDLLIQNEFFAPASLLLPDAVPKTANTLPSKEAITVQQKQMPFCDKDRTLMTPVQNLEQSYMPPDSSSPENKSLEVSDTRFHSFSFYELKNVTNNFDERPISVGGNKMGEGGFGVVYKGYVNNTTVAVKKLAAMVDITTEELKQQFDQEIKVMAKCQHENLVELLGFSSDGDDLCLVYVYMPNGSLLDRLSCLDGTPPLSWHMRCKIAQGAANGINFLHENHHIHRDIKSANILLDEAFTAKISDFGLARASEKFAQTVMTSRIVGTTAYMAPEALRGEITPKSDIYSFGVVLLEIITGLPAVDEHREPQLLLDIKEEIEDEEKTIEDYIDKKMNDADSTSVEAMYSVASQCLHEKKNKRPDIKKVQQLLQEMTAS

| SMILES | EC50 [1] | IC50 [2] |
| --- | --- | --- |
| CC(C)(O)[C@H](F)CNC(=O)c1cnc(-c2ccc3cc(C#N)cnn23)cc1Nc1ccc(C(C)(C)N2CCCC2=O)cc1 [Example 875, (R)-6-(3-cyanopyrrolo[1,2-b]pyridazin-7-yl)-N-(2-fluoro-3-hydroxy-3-methyl-butyl)-4-((4-(2-(2-oxo-pyrrolidin-1-yl)propan-2-yl)phenyl)amino)nicotinamide] | 64 nM | 2 nM |
| CC(C)(O)[C@H](F)CNC(=O)c1cnc(-c2ccc3cc(C#N)cnn23)cc1Nc1ccc(C2(N3CCOC3=O)CC2)cc1 [Example 876, (R)-6-(3-cyanopyrrolo[1,2-b]pyridazin-7-yl)-N-(2-fluoro-3-hydroxy-3-methylbutyl)-4-((4-(1-(2-oxooxazolidin-3-yl)cyclo-propyl)phenyl)amino) nicotinamide] | 24 nM | < 1 nM |
| CC(C)(O)[C@H](F)CNC(=O)c1cnc(-c2ccc3cc(C#N)cnn23)cc1Nc1ccc(N2CCCC2)nc1 [Example 877, (R)-6-(3-cyano-pyrrolo[1,2-b]pyridazin-7-yl)-N-(2-fluoro-3-hydroxy-3-methylbutyl)-4-((6-(pyrrolidin-1-yl)pyridin-3-yl)amino) nicotinamide] | 46 nM | 2 nM |
| CC(=O)NC[C@@H]1CCCN1c1ccc(Nc2cc(-c3ccc4cc(C#N)cnn34)ncc2C(=O)NC[C@@H](F)C(C)(C)O)cn1 [Example 878, 4-((6-((S)-2-(acetamidomethyl)pyrrolidin-1-yl)pyridin-3-yl)amino)-6-(3-cyanopyrrolo[1,2-b]pyridazin-7-yl)-N-((R)-2-fluoro-3-hydroxy-3-methylbutyl)nicotinamide] | 141 nM | 2 nM |
| COC(=O)NC[C@@H]1CCCN1c1ccc(Nc2cc(-c3ccc4cc(C#N)cnn34)ncc2C(=O)NC[C@@H](F)C(C)(C)O)cn1 [Example 879, methyl (((S)-1-(5-((2-(3-cyanopyrrolo[1,2-b]pyridazin-7-yl)-5-(((R)-2-fluoro-3-hydroxy-3-methylbutyl)carbamoyl)pyridin-4-yl)amino)pyridin-2-yl)pyrrolidin-2-yl)methyl)carbamate] | 225 nM | 1 nM |
| CC(=O)NC1CCN(c2ccc(Nc3cc(-c4ccc5cc(C#N)cnn45)ncc3C(=O)NC[C@@H](F)C(C)(C)O)cn2)CC1 [Example 880, (R)-4-((6-(4-acetamido-piperidin-1-yl)pyridin-3-yl)amino)-6-(3-cyano-pyrrolo[1,2-b]pyridazin-7-yl)-N-(2-fluoro-3-hydroxy-3-methylbutyl) nicotinamide] | 58 nM | < 1 nM |
| COC(=O)NC1CCN(c2ccc(Nc3cc(-c4ccc5cc(C#N)cnn45)ncc3C(=O)NC[C@@H](F)C(C)(C)O)cn2)CC1 [Example 881, (R)-methyl (1-(5-((2-(3-cyanopyrrolo[1,2-b]pyridazin-7-yl)-5-((2-fluoro-3-hydroxy-3-methylbutyl)carbamoyl)pyridin-4-yl)amino)pyridin-2-yl)piperidin-4-yl)carbamate] | 84 nM | < 1 nM |
| CC(C)(O)[C@H](F)CNC(=O)c1cnc(-c2ccc3cc(C#N)cnn23)cc1Nc1cnn([C@@H]2CNC[C@H]2F)c1 [Example 882, 6-(3-cyanopyrrolo[1,2-b]pyridazin-7-yl)-N-((R)-2-fluoro-3-hydroxy-3-methylbutyl)-4-((1-((3R,4R)-4-fluoro-pyrrolidin-3-yl)-1H-pyrazol-4-yl)amino) nicotinamide] | 22 nM | < 1 nM |
| CC(C)(O)[C@H](F)CNC(=O)c1cnc(-c2ccc3cc(C#N)cnn23)cc1Nc1cnn([C@@H]2CNC[C@@H]2F)c1 [Example 883, 6-(3-cyanopyrrolo[1,2-b]pyridazin-7-yl)-N-((R)-2-fluoro-3-hydroxy-3-methylbutyl)-4-((1-((3R,4S)-4-fluoro-pyrrolidin-3-yl)-1H-pyrazol-4-yl)amino) nicotinamide] | 90 nM | < 1 nM |
| COC[C@@H]1CCCN1c1ccc(Nc2cc(-c3ccc4cc(C#N)cnn34)ncc2C(=O)NC[C@@H](F)C(C)(C)O)cn1 [Example 884, 6-(3-cyanopyrrolo[1,2-b]pyridazin-7-yl)-N-((R)-2-fluoro-3-hydroxy-3-methylbutyl)-4-((6-((S)-2-(methoxymethyl)pyrrolidin-1-yl)pyridin-3-yl)amino)nicotinamide] | 29 nM | 2 nM |
| COC[C@@H]1CCN(c2ccc(Nc3cc(-c4ccc5cc(C#N)cnn45)ncc3C(=O)NC[C@@H](F)C(C)(C)O)cn2)C1 [Example 885, 6-(3-cyanopyrrolo[1,2-b]pyridazin-7-yl)-N-((R)-2-fluoro-3-hydroxy-3-methylbutyl)-4-((6-((R)-3-(methoxymethyl)pyrrolidin-1-yl)pyridin-3-yl)amino) nicotinamide] | 70 nM | 1 nM |
| CC(=O)NC[C@H]1CN(c2ccc(Nc3cc(-c4ccc5cc(C#N)cnn45)ncc3C(=O)NC[C@@H](F)C(C)(C)O)cn2)CCO1 [Example 886, 4-((6-((S)-2-(acetamido-methyl)morpholino)pyridin-3-yl)amino)-6-(3-cyano-pyrrolo[1,2-b]pyridazin-7-yl)-N-((R)-2-fluoro-3-hydroxy-3-methylbutyl) nicotinamide] | 29 nM | 2 nM |
| COC(=O)NC[C@H]1CN(c2ccc(Nc3cc(-c4ccc5cc(C#N)cnn45)ncc3C(=O)NC[C@@H](F)C(C)(C)O)cn2)CCO1 [Example 887, methyl (((S)-4-(5-((2-(3-cyanopyrrolo[1,2-b]pyridazin-7-yl)-5-(((R)-2-fluoro-3-hydroxy-3-methylbutyl)carbamoyl)pyridin-4-yl)amino)pyridin-2-yl)morpholin-2-yl)methyl)carbamate] | 88 nM | 1 nM |
| COC(=O)Nc1ccc(Nc2cc(-c3ccc4cc(C#N)cnn34)ncc2C(=O)NC[C@@H](F)C(C)(C)O)cn1 [Example 888, methyl (R)-(5-((2-(3-cyanopyrrolo[1,2-b]pyridazin-7-yl)-5-((2-fluoro-3-hydroxy-3-methylbutyl)carbamoyl)pyridin-4-yl)amino)pyridin-2-yl)carbamate] | 21 nM | < 1 nM |
| CC(=O)N1CC[C@H]1CNc1cc(-c2ccc3cc(C#N)cnn23)ncc1C(=O)NC[C@@H](F)C(C)(C)O [Example 889, 4-((((S)-1-acetylazetidin-2-yl)methyl)amino)-6-(3-cyanopyrrolo[1,2-b]pyridazin-7-yl)-N-((R)-2-fluoro-3-hydroxy-3-methylbutyl)nicotinamide] | 436 nM | 9 nM |
| COC(=O)N1CC[C@H]1CNc1cc(-c2ccc3cc(C#N)cnn23)ncc1C(=O)NC[C@@H](F)C(C)(C)O [Example 890, (S)-methyl 2-(((2-(3-cyanopyrrolo[1,2-b]pyridazin-7-yl)-5-(((R)-2-fluoro-3-hydroxy-3-methylbutyl)carbamoyl)pyridin-4-yl)amino)methyl)azetidine-1-carboxylate] | 357 nM | 14 nM |
| CC(C)(O)[C@H](F)CNC(=O)c1cnc(-c2ccc3cc(C#N)cnn23)cc1NC[C@@H]1CCN1CC(F)(F)F [Example 891, 6-(3-cyanopyrrolo[1,2-b]pyridazin-7-yl)-N-((R)-2-fluoro-3-hydroxy-3-methylbutyl)-4-((((S)-1-(2,2,2-trifluoroethyl)azetidin-2-yl)methyl)amino)nicotinamide] | 249 nM | 4 nM |
| CC(=O)N1CC[C@@H]1CNc1cc(-c2ccc3cc(C#N)cnn23)ncc1C(=O)NC[C@@H](F)C(C)(C)O [Example 892, 4-((((R)-1-acetylazetidin-2-yl)methyl)amino)-6-(3-cyanopyrrolo[1,2-b]pyridazin-7-yl)-N-((R)-2-fluoro-3-hydroxy-3-methylbutyl)nicotinamide] | 808 nM | 3 nM |
| COC(=O)N1CC[C@@H]1CNc1cc(-c2ccc3cc(C#N)cnn23)ncc1C(=O)NC[C@@H](F)C(C)(C)O [Example 893, (R)-methyl 2-(((2-(3-cyano-pyrrolo[1,2-b]pyridazin-7-yl)-5-(((R)-2-fluoro-3-hydroxy-3-methylbutyl)carbamoyl)pyridin-4-yl)amino)methyl)azetidine-1-carboxylate] | 217 nM | 2 nM |
| CC(C)(O)[C@H](F)CNC(=O)c1cnc(-c2ccc3cc(C#N)cnn23)cc1NC[C@H]1CCN1CC(F)(F)F [Example 894, 6-(3-cyanopyrrolo[1,2-b]pyridazin-7-yl)-N-((R)-2-fluoro-3-hydroxy-3-methylbutyl)-4-((((R)-1-(2,2,2-trifluoroethyl)azetidin-2-yl)methyl)amino)nicotinamide] | 245 nM | 7 nM |
| CC(C)(O)[C@H](F)CNC(=O)c1cnc(-c2ccc3cc(C#N)cnn23)cc1NC1CC2(CNC2)C1 [Example 895, (R)-4-(2-azaspiro[3.3]heptan-6-ylamino)-6-(3-cyanopyrrolo[1,2-b]pyridazin-7-yl)-N-(2-fluoro-3-hydroxy-3-methyl-butyl)nicotinamide] | 1000 nM | 2 nM |
| N#CCNC(=O)c1cnc(-c2ccc3cc(C#N)cnn23)cc1Nc1cnn([C@H]2CCNC2)c1 [Example 896, (S)-N-(cyanomethyl)-6-(3-cyanopyrrolo[1,2-b]pyridazin-7-yl)-4-((1-(pyrrolidin-3-yl)-1H-pyrazol-4-yl)amino) nicotinamide] | 48 nM | < 1 nM |
| COC(=O)N1CC2(CC(Nc3cc(-c4ccc5cc(C#N)cnn45)ncc3C(=O)NC[C@@H](F)C(C)(C)O)C2)C1 [Example 897, (R)-methyl 6-((2-(3-cyano-pyrrolo[1,2-b]pyridazin-7-yl)-5-((2-fluoro-3-hydroxy-3-methylbutyl)carbamoyl)pyridin-4-yl)amino)-2-azaspiro[3.3]heptane-2-carboxylate] | 421 nM | 2 nM |
| CC(C)(O)[C@H](F)CNC(=O)c1cnc(-c2ccc3cc(C#N)cnn23)cc1NC1CC2(C1)CN(CC(F)(F)F)C2 [Example 898, (R)-6-(3-cyanopyrrolo[1,2-b]pyridazin-7-yl)-N-(2-fluoro-3-hydroxy-3-methylbutyl)-4-((2-(2,2,2-trifluoroethyl)-2-aza-spiro[3.3]heptan-6-yl)amino)nicotinamide] | 118 nM | < 1 nM |
